Reference: US9498035B2, “Silicone hydrogel contact lenses for sustained release of beneficial polymers” (CooperVision International Holding Company, LP, priority 2012, dated 2016)

Columns and labels:
[1] = Release of αPLL of varying molecular weight from Formulation C lenses; format: physicochemical; conditions: for release between the 6 hour and 24 hour time points (in words): hydrobromide
Protocol: Lenses of Formulations B-E prepared according to Example 1 were used in this study. The lenses were immersed in 1.2 ml of 500 ppm εPLL in PBS for 48 hours as described in Example 3. Excess solution was removed from each lens by gently blotting with an absorbent tissue. Each lens was immersed in 1 ml of ISO 10344 standard saline solution (0.83% sodium chloride, 0.0467% sodium phosphate monobasic, and 0.4486% sodium phosphate dibasic) in a well of a 12-well plate and covered. The plates were shaken at 100 rpm at 37±2° C. At 2, 4, 6, 8, 12, and 24 hours, the solution was removed from each well and replaced with 1 ml of fresh ISO 10344 standard saline solution. HPLC was used to determine the amount of εPLL released from each lens.
Polymer release was tested substantially as described in Example 4, except that the time points tested were at 2, 6, and 24 hr.

[2] = Uptake of αPLL of varying molecular weight by Formulation C lenses; format: physicochemical; conditions: 1.8 ml 500 ppm αPLL in PBS, autoclave and overnight storage at room temperature, hydrobromide
Protocol: Solutions of 500 ppm poly-L-lysine hydrobromide (CAS No. 25988-63-0) (αPLL) with varying molecular weight ranges were prepared in PBS. Lenses of Formulation C prepared as described in Example 1 were packaged with 1.8 ml of each solution and autoclaved. After autoclave and overnight storage at room temperature uptake of αPLL was measured.

Substance | duration of sustained release (in words) [1] | release between the 6 hour and 24 hour time points (in words) [1] | uptake [2] | release of polymer detected (in words) ([1]; time points 2, 6, and 24 hr)
poly-L-lysine hydrobromide [Formulation 500-2K] | sustained for at least two hours | no significant release | 122 μg/lens | –
poly-L-lysine hydrobromide [Formulation 30K-70K] | – | – | 299 μg/lens | –
poly-L-lysine hydrobromide [Formulation 70K-150K] | – | – | 185 μg/lens | No significant release
poly-L-lysine hydrobromide [Formulation 1K-5K] | sustained for at least two hours | no significant release | 142 μg/lens | –
poly-L-lysine hydrobromide [Formulation 4K-15K] | – | significant release | 400 μg/lens | –
poly-L-lysine hydrobromide [Formulation 15K-30K] | – | significant release | 414 μg/lens | –
